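How tested: cells in 96-well plates exposed to compound for 48 hours at five concentrations. The concentration for 50% growth inhibition is given as GI50.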 Calls of active or inactive are those of the source. Rule as the data show it: active = GI50 up to about 1.1 µM and inactive = higher.
Columns and labels:
Experiment in all cases: NCI-60 cell line screen, 48 h
786-0 = tested on: 786-0
A549 = tested on: A549
HCT-116 = tested on: HCT-116
HOP-92 = tested on: HOP-92
HT-29 = tested on: HT-29
K562 = tested on: K562
LOX IMVI = tested on: LOX IMVI
Malme-3M = tested on: Malme-3M
NCI-H226 = tested on: NCI-H226
NCI-H23 = tested on: NCI-H23
OVCAR-3 = tested on: OVCAR-3
OVCAR-4 = tested on: OVCAR-4
OVCAR-5 = tested on: OVCAR-5
PC-3 = tested on: PC-3
RXF 393 = tested on: RXF 393
SF-268 = tested on: SF-268
SK-MEL-2 = tested on: SK-MEL-2
SK-MEL-5 = tested on: SK-MEL-5
SK-OV-3 = tested on: SK-OV-3
UO-31 = tested on: UO-31

Measured: GI50

CC(=O)OC1C(O)COC(O[C@H]2CC[C@]34C[C@]35CC[C@]3(C)C([C@@]6(C)CC[C@@H](C(C)(C)O)O6)[C@@H](O)C[C@@]3(C)C5C[C@H](OC3OCC(O)C(O)C3O)[C@H]4C2(C)C)C1OC1OCC(O)C(O)C1O (stereo not given in full)
inactive: 786-0 > 100 µM | A549 > 100 µM | HCT-116 > 100 µM | HOP-92 > 100 µM | HT-29 > 100 µM | K562 > 100 µM | LOX IMVI > 100 µM | Malme-3M > 100 µM | NCI-H226 > 100 µM | NCI-H23 > 100 µM | OVCAR-3 > 100 µM | OVCAR-4 > 100 µM | OVCAR-5 > 100 µM | PC-3 > 100 µM | RXF 393 > 86.3 µM | SF-268 > 100 µM | SK-MEL-2 > 100 µM | SK-MEL-5 > 100 µM | SK-OV-3 > 100 µM | UO-31 > 100 µM

C=C1c2nc3ccccc3n2C=C(c2ccc(OC)cc2)N1c1ccccc1
inactive: 786-0 6.11 µM | A549 5.37 µM | HCT-116 3.95 µM | HOP-92 30.2 µM | HT-29 9.68 µM | K562 2.62 µM | LOX IMVI 7.36 µM | Malme-3M 3.98 µM | NCI-H226 4.12 µM | NCI-H23 11.7 µM | OVCAR-3 6.62 µM | OVCAR-4 17.9 µM | OVCAR-5 > 78.5 µM | PC-3 9.12 µM | RXF 393 6.71 µM | SF-268 50 µM | SK-MEL-2 5.28 µM | SK-MEL-5 3.99 µM | SK-OV-3 47.8 µM | UO-31 9.02 µM

CCCCCCCCCCCCCCCCCCNc1ccn(C2OC(COP(=O)(O)OCC3OC(n4ccc(N)nc4=O)C(O)C3O)C(O)C2O)c(=O)n1 (stereo not given)
inactive: 786-0 44.7 µM | A549 8.59 µM | HCT-116 18.8 µM | HOP-92 > 51.3 µM | HT-29 37.7 µM | K562 65.8 µM | LOX IMVI 16.5 µM | Malme-3M > 50 µM | NCI-H226 > 100 µM | NCI-H23 27.5 µM | OVCAR-3 > 100 µM | OVCAR-4 > 72.8 µM | OVCAR-5 98.6 µM | PC-3 39.8 µM | RXF 393 > 100 µM | SF-268 63.8 µM | SK-MEL-2 > 100 µM | SK-MEL-5 > 100 µM | SK-OV-3 > 86.9 µM | UO-31 42.4 µM
